Laboratory results reported in paper PMC6433934, “Preclinical Evaluation of Bispecific Adaptor Molecule Controlled Folate Receptor CAR-T Cell Therapy With Special Focus on Pediatric Malignancies” (Frontiers in Oncology, 2019).

What was measured:
E2-CAR-T cells = assay: 3H-EC17 radioligand binding to effector cells; set-up: species or system human; settings: ^3H-EC17, E2-CAR-T cells ~100% EGFRt+, 1:1 CD8/CD4, 1.5 h room temperature, estimated from specific binding curve
Experimental: The bispecific affinities of EC17 CAM were assessed using ^3H-EC17 in cell-based radioligand binding assays. For binding to FR+ targets, KB and CHO-β cells were pre-seeded overnight in 24-well tissue culture plates and incubated with 0.1, 0.5, 1, 5, 10, 20, and 40 nM of ^3H-EC17 in FFRPMI for 2 h at 37°C. Afterwards, the cells were rinsed with phosphate-buffered saline (PBS, pH 7.4) and lysed with 1% sodium dodecyl sulfate. The whole cell lysates were quantitated for the level of radioactivity and cellular protein content by standard Pierce BCA protein assay. The number of ^3H-EC17 molecules bound per cell was calculated to determine the dissociation constants (Kd) for FRα (KB) and FRβ (CHO-β), respectively. […] Afterwards, the cells were washed 4x with PBS, lysed with 0.1% Triton X-100 plus 0.1 N NaOH and counted in a scintillation counter. The specific binding curve was generated by subtracting non-specific binding (^3H-EC17 plus “cold” EC17) from total binding (^3H-EC17) at each concentration of the radioligand.

THP1-FRβ = assay: AML study, intravenous xenografts, EC17 dosing regimens; type: in vivo, NSG mice
Experimental: All animal care and use were performed according to NIH guidelines and in compliance with protocols approved by the Purdue University Animal Use and Care Committee. Female 4 to 5-weeks-old NOD/SCID gamma (NSG™) mice (stock number: 005557) were purchased from The Jackson Laboratory (Bar Harbor, ME). Unless specifically indicated, all animals were maintained on a FA-deficient diet (TestDiet, St. Louis, MO) upon arrival and throughout the study. To establish subcutaneous xenografts, MDA-MB-231 and HOS-FRα were implanted in the right flank region at 2.5 × 10^6 and 1 × 10^6 cells per animal, respectively. For intravenous xenografts, THP1-FRβ cells were inoculated at 5 × 10^6 cells per animal. Subcutaneous tumors were measured 2–3 times per week with a caliper and calculated using the ellipsoidal formula (length x width^2)/2. […] All animal doses (CAR-T cells, EC17, sodium fluorescein) were given intravenously.
For AML studies, mice were intravenously infused with THP1-FRβ tumor cells 1 day prior to receiving a low dose of ~6 million E2-CAR-T cells (~23% EGFRt+). At ~3.5 days post CAR-T cell infusion, EC17 was dosed in 3 different ways including (i) SIW at 500 nmol/kg, (ii) thrice at 5/50/500 nmol/kg on Monday/Wednesday/Friday followed by a 9 day break in between cycles (TIW On/Off), and iii) as escalating doses of 5/10/100 nmol/kg in Cycle 1, 5/30/300 nmol/kg in Cycle 2, and 5/50/500 nmol/kg in Cycle 3, all on Monday/Thursday/Monday with a 6 day break in between cycles (M/Th/M, On/Off). On day 31, satellite animals were harvested for quantification of CAR-positive T cells identified in the mouse blood as human CD3ε+ EGFRt+ events and calculated as absolute numbers per 100 μL of whole blood. Upon euthanasia or at the end of study on day 38, total tumor load in THP1-FRβ tumor-bearing mice was assessed by measuring GFP+ tumor cells in the blood by flow cytometry and collecting liver weight (with metastatic lesions) and total weight of nonliver macrometastases found in the body cavities. Tumor fragments of liver metastases were enzymatically digested into single-cell suspensions and viable cell populations were analyzed for the status of CAR-T cell exhaustion using anti-human PD1, LAG3, and TIM3 (clones EH12.1, T47-530, and 7D3, respectively).
Depending on the CAR-T cell dose and how EC17 is administered, tumor-bearing mice receiving FITC-specific CAR-T cells can experience severe CRS and varying degrees of body weight loss ([27], [33], [34]). Therefore, we developed a CRS grading system (0–5 scale) to empirically assess CRS toxicity from animals' gross morphology and social behavior to allow for better timing of CRS rescue. While grades 0 and 5 indicated normal (no CRS) or death (due to severe CRS), respectively, grades 1, 2, and 3–4 were considered mild, light-to-moderate, and severe CRS. In addition, all EC17 doses were intentionally given toward the end of any given day to allow potential CRS symptoms to develop overnight. On the days immediately following each EC17 dose, animals were scored and rescue agents such as sodium fluorescein, folic acid and leucovorin were used to mitigate CRS toxicity ([33]). In this particular instance, a batch of E2-CAR-T cells with a high EGFRt+ CD4/CD8 ratio (~93:7) was given to HOS-FRα tumor-bearing mice at a mixture of ~2.5 million CD8 and ~33 million CD4 on day 0. When EC17 was dosed, respectively, at 500, 100, and 500 nmol/kg on days 3, 10, and 12, low CRS (grades 1–2) was noted on days 4 and 11 but high CRS (grade 3) was noted on day 13. To mitigate the severe CRS toxicity, sodium fluorescein was intravenously administrated at ~96 mg/kg in the morning of day 13 and mouse plasma samples were collected 6 h later for analysis of CRS-associated cytokines.

FRβ = biological target: T1, FRβ (Homo sapiens, UniProt P14207); assay: 3H-EC17 cell-based radioligand binding, CHO-β cells; settings: ^3H-EC17, CHO-β cells, 2 h at 37°C, from molecules bound per cell
T1 construct: expressed in transfected cells; host or cells: Chinese hamster ovary cells (CHO-β)
T1 sequence (P14207 17-255): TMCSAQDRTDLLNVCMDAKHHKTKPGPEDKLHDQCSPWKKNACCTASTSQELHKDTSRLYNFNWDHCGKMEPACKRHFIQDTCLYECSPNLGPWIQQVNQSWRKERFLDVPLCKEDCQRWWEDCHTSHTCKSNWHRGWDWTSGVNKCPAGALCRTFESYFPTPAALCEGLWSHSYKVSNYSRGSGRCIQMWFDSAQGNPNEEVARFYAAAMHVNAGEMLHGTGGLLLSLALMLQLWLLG
Experimental: Unless otherwise noted, all FR+ and FR-negative cancer cell lines were, respectively, maintained in RPMI-1640 medium (Gibco BRL) supplemented with 10% heat-inactivated fetal calf serum without (FFRPMI) or with (RPMI) 2.4 μM folic acid (FA). KB (FRα-expressing human cervical carcinoma with HeLa markers) and CHO-β (Chinese hamster ovary cells transfected with human FRβ) were used as the sources of FRα and FRβ for radioligand binding assays, respectively ([18]). MDA-MB-231 represents a FRα+ subclone of human TNBC cell line. For AML studies, the green fluorescent protein (GFP)-expressing isogenic pairs of FRβ-positive (THP1-FRβ) and FR-negative (THP1-FG12) cell lines were kindly provided by Dr. Manohar Ratnam (The University of Toledo, Toledo, OH). […]
The bispecific affinities of EC17 CAM were assessed using ^3H-EC17 in cell-based radioligand binding assays. […] The whole cell lysates were quantitated for the level of radioactivity and cellular protein content by standard Pierce BCA protein assay. The number of ^3H-EC17 molecules bound per cell was calculated to determine the dissociation constants (Kd) for FRα (KB) and FRβ (CHO-β), respectively. […] Afterwards, the cells were washed 4x with PBS, lysed with 0.1% Triton X-100 plus 0.1 N NaOH and counted in a scintillation counter. […]

## Nc1nc2ncc(CNc3ccc(C(=O)NC(CCC(=O)NCCNC(=S)Nc4ccc(-c5c6ccc(=O)cc-6oc6cc(O)ccc56)c(C(=O)O)c4)C(=O)O)cc3)nc2c(=O)[nH]1 (stereo not drawn) [EC17, FA-(γ)-ethylenediamine-FITC]
E2-CAR-T cells
  Kd: ~0.142 µM
THP1-FRβ; EC17 M/Th/M dose escalation at a slow pace per cycle
  non-liver macrometastases: failed to control
THP1-FRβ; EC17 M/Th/M dose escalation, Cycle 2 after 300 nmol/kg, ~6 million E2-CAR-T cells
  CRS grade: 0–1
THP1-FRβ; EC17 SIW 500 nmol/kg, Cycles 2 and 3, ~6 million E2-CAR-T cells
  CRS grade: 1–2
THP1-FRβ; EC17 SIW and TIW at 10-fold dose escalation (on/off)
  non-liver macrometastases: successfully controlled
THP1-FRβ; EC17 TIW 5/50/500 nmol/kg on/off, ~6 million E2-CAR-T cells
  CRS grade: 0–1
THP1-FRβ; THP1-FRβ xenografts, EC17 plus E2-CAR-T cells
  cures: no cures
THP1-FRβ; any of the 3 EC17 regimens vs controls, ~6 million E2-CAR-T cells
  circulating THP1-FRβ tumor cells in the blood: effectively reduced
FRβ
  Kd: 0.0008 µM
